The assay deals with Glucokinase known as hexokinase IV (human GK isoform 1, pancreas form and human GK isoform 2, liver form). As to the kind of experiment: Glucokinase enzymatic activity assay (G6PDH-coupled, NADH absorbance at 340 nm). The class given is biochemical. As to conditions: 5 mM glucose, 1 mM ATP, 37 nM GK, 10 min at room temperature. The essentials: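 His-tagged human GK isoform 1 (pancreas) or 2 (liver), E. coli-expressed and Ni-purified, 37 nM, with 5 mM glucose, 1 mM ATP, 1 mM NAD and G6PDH in 25 mM Hepes/KCl, 2 mM MgCl2, 1 mM DTT. Ran 10 min at room temperature, read as NADH at 340 nm. AC1.5 is the compound concentration giving 1.5-fold activity.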

Consider 28 compounds from US8309586B2, “Glucokinase activators and pharmaceutical compositions containing the same as an active ingredient” (LG Life Sciences Ltd., priority 2007, dated 2012).

For `COc1cc(NC2CCCC2)c2[nH]c(C3=N[C@H](CCN4CCN(C(=O)CO)CC4)CS3)cc2c1` [Example 146, 1-(4-{2-[(R)-2-(7-cyclopentylamino-5-methoxy-1H-indol-2-yl)-4,5-dihydro-thiazol-4-yl]-ethyl}-piperazin-1-yl)-2-hydroxy-ethanone], the “AC1.5 (the compound concentration at which the enzymatic activity is increased by 1.5 times)” value is given as 29 nM. The value for `OCC[C@@H]1CSC(c2cc3cc(Br)cc(NC4CCCC4)c3[nH]2)=N1` [Example 34, 2-[(R)-2-(5-bromo-7-cyclopentylamino-1H-indol-2-yl)-4,5-dihydro-1,3-thiazol-4-yl]-ethanol] was 11 nM; that for `COCC[C@@H]1CSC(c2cc3cccc(NC4CCCC4)c3[nH]2)=N1` [Example 141, cyclopentyl-{2-[(R)-4-(2-methoxy-ethyl)-4,5-dihydro-thiazol-2-yl]-1H-indol-7-yl}-amine] was 24 nM.

Consider `OC[C@@H]1CSC(c2cc3cc(Oc4cccnc4)cc(NC4CCOCC4)c3[nH]2)=N1` [Example 14, {(R)-2-[5-(pyridin-3-yloxy)-7-(tetrahydro-pyran-4-ylamino)-1H-indol-2-yl]-4,5-dihydro-thiazol-4-yl}-methanol], for which the “AC1.5 (the compound concentration at which the enzymatic activity is increased by 1.5 times)” value came out at 8 nM. Turning to `O=C(c1ccco1)N1CCN(CC[C@@H]2CSC(c3cc4cc(Cl)cc(NC5CCOCC5)c4[nH]3)=N2)CC1` [Example 121, [4-(2-{(R)-2-[5-chloro-7-(tetrahydro-pyran-4-ylamino)-1H-indol-2-yl]-4,5-dihydro-thiazol-4-yl}-ethyl)-piperazin-1-yl]-furan-2-yl-methanone], the “AC1.5 (the compound concentration at which the enzymatic activity is increased by 1.5 times)” value was 40 nM. With `O=C(CC[C@@H]1CSC(c2cc3cc(Cl)cc(NC4CCCC4)c3[nH]2)=N1)NCCN1CCOCC1` [Example 153, 3-[(R)-2-(5-chloro-7-cyclopentylamino-1H-indol-2-yl)-4,5-dihydro-thiazol-4-yl]-N-(2-morpholin-4-yl-ethyl)-propionamide], the “AC1.5 (the compound concentration at which the enzymatic activity is increased by 1.5 times)” value is recorded as 12 nM. For the compound `CS(=O)(=O)CC[C@@H]1CSC(c2cc3cc(Cl)cc(NC4CCCC4)c3[nH]2)=N1` [Example 108, {5-chloro-2-[(R)-4-(2-methanesulfonyl-ethyl)-4,5-dihydro-thiazol-2-yl]-1H-indol-7-yl}-cyclopentyl-amine], the “AC1.5 (the compound concentration at which the enzymatic activity is increased by 1.5 times)” value is recorded as 15 nM. For the compound `O=C1CN(CC[C@@H]2CSC(c3cc4cc(F)cc(NC5CCCC5)c4[nH]3)=N2)CCN1` [Example 130, 4-{2-[(R)-2-(7-cyclopentylamino-5-fluoro-1H-indol-2-yl)-4,5-dihydro-thiazol-4-yl]-ethyl}-piperazin-2-one], the “AC1.5 (the compound concentration at which the enzymatic activity is increased by 1.5 times)” value is given as 14 nM.

Take `CCCOc1cc(NC2CCCC2)c2[nH]c(C3=N[C@H](CC(=O)O)CS3)cc2c1` [Example 53, [(R)-2-(7-cyclopentylamino-5-propoxy-1H-indol-2-yl)-4,5-dihydro-thiazol-4-yl]-acetic acid]: the “AC1.5 (the compound concentration at which the enzymatic activity is increased by 1.5 times)” value is 97 nM. Take `O=C(O)CC[C@@H]1CSC(c2cc3cc(OC(F)(F)F)cc(NC4CCCC4)c3[nH]2)=N1` [Example 169, 3-[(R)-2-(7-cyclopentylamino-5-trifluoromethoxy-1H-indol-2-yl)-4,5-dihydro-thiazol-4-yl]-propionic acid]: the “AC1.5 (the compound concentration at which the enzymatic activity is increased by 1.5 times)” value is recorded as 9 nM. For `O=C(O)C[C@@H]1CSC(c2cc3cc(Oc4ccccc4)cc(NC4CCOCC4)c3[nH]2)=N1` [Example 55, {(R)-2-[5-phenoxy-7-(tetrahydro-pyran-4-ylamino)-1H-indol-2-yl]-4,5-dihydro-thiazol-4-yl}-acetic acid], the “AC1.5 (the compound concentration at which the enzymatic activity is increased by 1.5 times)” value was 29 nM. The value for `CS(=O)(=O)Cc1cc(NC2CCCC2)c2[nH]c(C3=N[C@H](CC(=O)O)CS3)cc2c1` [Example 69, [(R)-2-(7-cyclopentylamino-5-methanesulfonylmethyl-1H-indol-2-yl)-4,5-dihydro-thiazol-4-yl]-acetic acid] was 64 nM; that for `CC(=O)N1CCN(CC[C@@H]2CSC(c3cc4cc(CS(C)(=O)=O)cc(NC5CCCC5)c4[nH]3)=N2)CC1` [Example 72, 1-(4-{2-[(R)-2-(7-cyclopentylamino-5-methanesulfonylmethyl-1H-indol-2-yl)-4,5-dihydro-thiazol-4-yl]-ethyl}-piperazin-1-yl)-ethanone] was 51 nM; that for `OC[C@@H]1CSC(c2cc3cc(Cl)cc(NC4CCCC4)c3[nH]2)=N1` [Example 7, [(R)-2-(5-chloro-7-cyclopentylamino-1H-indol-2-yl)-4,5-dihydro-thiazol-4-yl]-methanol] was 7 nM. For `COC(=O)C[C@@H]1CSC(c2cc3cc(Oc4cccnc4)cc(NC4CCCC4)c3[nH]2)=N1` [Example 56, {(R)-2-[7-cyclopentylamino-5-(pyridin-3-yloxy)-1H-indol-2-yl]-4,5-dihydro-thiazol-4-yl}-acetic acid methyl ester], the “AC1.5 (the compound concentration at which the enzymatic activity is increased by 1.5 times)” value is on record as 17 nM. With `Clc1cc(NC2CCOCC2)c2[nH]c(C3=N[C@H](CCN4CCN(c5ncccn5)CC4)CS3)cc2c1` [Example 123, (5-chloro-2-{(R)-4-[2-(4-pyrimidin-2-yl-piperazin-1-yl)-ethyl]-4,5-dihydro-thiazol-2-yl}-1H-indol-7-yl)-(tetrahydro-pyran-4-yl)-amine], the “AC1.5 (the compound concentration at which the enzymatic activity is increased by 1.5 times)” value was found to be 62 nM. For `O=C(C[C@@H]1CSC(c2cc3cc(Cl)cc(NC4CCOCC4)c3[nH]2)=N1)N1CCOCC1` [Example 83, 2-{(R)-2-[5-chloro-7-(tetrahydro-pyran-4-ylamino)-1H-indol-2-yl]-4,5-dihydro-thiazol-4-yl}-1-morpholin-4-yl-ethanone], the “AC1.5 (the compound concentration at which the enzymatic activity is increased by 1.5 times)” value came to 45 nM.

Take `Fc1cc(NC2CCCC2)c2[nH]c(C3=N[C@H](CCN4CCCC4)CS3)cc2c1` [Example 128, cyclopentyl-{5-fluoro-2-[(R)-4-(2-pyrrolidin-1-yl-ethyl)-4,5-dihydro-thiazol-2-yl]-1H-indol-7-yl}-amine]: the “AC1.5 (the compound concentration at which the enzymatic activity is increased by 1.5 times)” value is 16 nM.

`Clc1cc(NC2CCCC2)c2[nH]c(C3=N[C@H](CCn4cccn4)CS3)cc2c1` [Example 106, {5-chloro-2-[(R)-4-(2-pyrazol-1-yl-ethyl)-4,5-dihydro-thiazol-2-yl]-1H-indol-7-yl}-cyclopentyl-amine]: the “AC1.5 (the compound concentration at which the enzymatic activity is increased by 1.5 times)” value amounted to 14 nM. As for `CS(=O)(=O)CC[C@@H]1CSC(c2cc3cc(F)cc(NC4CCCC4)c3[nH]2)=N1` [Example 132, cyclopentyl-{5-fluoro-2-[(R)-4-(2-methanesulfonyl-ethyl)-4,5-dihydro-thiazol-2-yl]-1H-indol-7-yl}-amine], the “AC1.5 (the compound concentration at which the enzymatic activity is increased by 1.5 times)” value turned out to be 13 nM. For the compound `CNC(=O)C[C@@H]1CSC(c2cc3cccc(NC4CCOCC4)c3[nH]2)=N1` [Example 92, N-methyl-2-{(R)-2-[7-(tetrahydro-pyran-4-ylamino)-1H-indol-2-yl]-4,5-dihydro-thiazol-4-yl}-acetamide], the “AC1.5 (the compound concentration at which the enzymatic activity is increased by 1.5 times)” value worked out at 112 nM. Regarding `CNC(=O)C[C@@H]1CSC(c2cc3cc(OC)cc(NC4CCCC4)c3[nH]2)=N1` [Example 87, 2-[(R)-2-(7-cyclopentylamino-5-methoxy-1H-indol-2-yl)-4,5-dihydro-thiazol-4-yl]-N-methyl-acetamide], the “AC1.5 (the compound concentration at which the enzymatic activity is increased by 1.5 times)” value was 10 nM.

On to `O=C(C[C@@H]1CSC(c2cc3cccc(NC4CCCC4)c3[nH]2)=N1)N1CCOCC1` [Example 91, 2-[(R)-2-(7-cyclopentylamino-1H-indol-2-yl)-4,5-dihydro-thiazol-4-yl]-1-morpholin-4-yl-ethanone], for which the “AC1.5 (the compound concentration at which the enzymatic activity is increased by 1.5 times)” value worked out at 72 nM.

Regarding `CNC(=O)C[C@@H]1CSC(c2cc3cccc(NC4CCCC4)c3[nH]2)=N1` [Example 90, 2-[(R)-2-(7-cyclopentylamino-1H-indol-2-yl)-4,5-dihydro-thiazol-4-yl]-N-methyl-acetamide], the “AC1.5 (the compound concentration at which the enzymatic activity is increased by 1.5 times)” value is recorded as 37 nM. As to `CS(=O)(=O)c1ccc(Oc2cc(NC3CCCC3)c3[nH]c(C4=N[C@H](CC(=O)O)CS4)cc3c2)cc1` [Example 64, {(R)-2-[7-cyclopentylamino-5-(4-methanesulfonyl-phenoxy)-1H-indol-2-yl]-4,5-dihydro-thiazol-4-yl}-acetic acid], the “AC1.5 (the compound concentration at which the enzymatic activity is increased by 1.5 times)” value came to 17 nM.

As for `OC[C@@H]1CSC(c2cc3cc(Cn4ccnc4)cc(NC4CCCC4)c3[nH]2)=N1` [Example 22, [(R)-2-(7-cyclopentylamino-5-imidazol-1-ylmethyl-1H-indol-2-yl)-4,5-dihydro-thiazol-4-yl}-methanol], the “AC1.5 (the compound concentration at which the enzymatic activity is increased by 1.5 times)” value came to 112 nM. Take `O=C(O)CC[C@@H]1CSC(c2cc3cc(Cl)cc(NC4CCOCC4)c3[nH]2)=N1` [Example 151, 3-{(R)-2-[5-chloro-7-(tetrahydro-pyran-4-ylamino)-1H-indol-2-yl]-4,5-dihydro-thiazol-4-yl}-propionic acid]: the “AC1.5 (the compound concentration at which the enzymatic activity is increased by 1.5 times)” value turned out to be 14 nM.

In the case of `CCOC(=O)CC[C@@H]1CSC(c2cc3cc(OCC)cc(NC4CCCC4)c3[nH]2)=N1` [Example 166, 3-[(R)-2-(7-cyclopentylamino-5-ethoxy-1H-indol-2-yl)-4,5-dihydro-thiazol-4-yl]-propionic acid ethyl ester], the “AC1.5 (the compound concentration at which the enzymatic activity is increased by 1.5 times)” value amounted to 43 nM.
